Data as given in patent publication US8809352B2, “Sulfonamides as inhibitors of Bcl-2 family proteins for the treatments of cancer” (Novartis AG, priority 2009, dated 2014).

target: BCL2 (Homo sapiens, UniProt P10415); assay: Biacore SPR solution inhibition assay of BCL-2 binding to peptide derivatized sensor surfaces; details: SPR competition; 56 nM BCL2 pre-equilibrated with compound one hour; biotinylated BAK, BAD and NOXA peptide surfaces; 25° C.
Excerpt: The present method includes utility of a Surface plasmon resonance (SPR)-based biosensor (Biacore™ GE Healthcare, Uppsala, Sweden) to characterize BCL-2 inhibitors.
Biacore™ utilizes the phenomenon of surface plasmon resonance (SPR) to detect and measure binding interactions. In a typical Biacore experiment, one of the interacting molecules (ligand) is immobilized on a flexible dextran matrix while the interacting partner (analyte) is allowed to flow across that surface. A binding interaction results in an increase in mass on the sensor surface and a corresponding direct change in the refractive index of the medium in the vicinity of the sensor surface. Changes in refractive index or signal are recorded in resonance units (R.U.) Signal changes due to association and dissociation of complexes are monitored in a non-invasive manner, continuously and in real-time, the results of which are reported in the form of a sensorgram. The SPR assay is configured to examine solution inhibition of BCL-2 binding to peptide derivatized sensor surfaces to generate […] values as a measure of inhibitor potency.
Biacore™ A100 (GE Healthcare, Uppsala, Sweden) was used to conduct all experiments reported herein. Sensor surface preparation and all interaction analyses experiments were performed at 25° C. Reagents were purchased from GE Healthcare. Running buffer containing 10 mM Hepes, pH7.4, 150 mM sodium chloride, 1.25 mM Dithiothreitol, 3% Dimethyl sulfoxide and 0.05% polysorbate 20 were utilized throughout all analyses.
Biotinylated BAK, BAD and NOXA peptides were diluted to 10 nM in running buffer and captured onto a sensor surface pre-derivatized with streptavidin (sensor chip SA) to peptide surface densities in the range 50-100 R.U. Peptide captured surfaces were blocked with 500 μM PEO2-Biotin.
Interaction analyses were performed by first equilibrating each sample within a 6 point three fold compound dilution series in the range 16 μM to 0.004 nM with 56 nM BCL2 for one hour during instrument start-up procedures. Protein compound mixtures were then injected over each peptide surface in parallel for 60 seconds at a flow-rate of 30 μL/min. 56 nM BCL2 control samples were also prepared and run at regular intervals during the assay. Surface regeneration was performed at the end of each analysis cycle by two 30 second injections of 10 mM Glycine, pH 2.5, 1M Sodium Chloride, 0.05% polysorbate 20. Samples and control compound samples were run in duplicate and controls are also run at regular intervals during the assay to monitor surface and assay performance.
Data analyses are carried out using Biacore™ A100 evaluation software v1.1 to validate assay quality. Binding level report points were used relative to BCL2 control samples to calculate % inhibition values for each compound protein mixture.

Chain of BCL2 (P10415 whole entry): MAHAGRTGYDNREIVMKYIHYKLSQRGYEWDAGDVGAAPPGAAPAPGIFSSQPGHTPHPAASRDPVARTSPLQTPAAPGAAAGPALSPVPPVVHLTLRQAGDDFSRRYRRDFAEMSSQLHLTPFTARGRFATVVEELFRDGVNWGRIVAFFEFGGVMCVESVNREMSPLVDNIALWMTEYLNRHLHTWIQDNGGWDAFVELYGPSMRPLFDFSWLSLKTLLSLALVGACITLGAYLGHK

IC50 | Compound
87 nM | CN(C)CC[C@H](CSc1ccccc1Cl)Nc1ccc(S(=O)(=O)Nc2nc(C(F)(F)F)nc3c2CCN(C2CCN(CC4=C(c5ccc(Cl)cc5)CC(C)(C)CC4)CC2)C3)cc1S(=O)(=O)C(F)(F)F [Example 32, (R)-N-(7-(1-((2-(4-chlorophenyl)-4,4-dimethylcyclohex-1-enyl)methyl)piperidin-4-yl)-2-(trifluoromethyl)-5,6,7,8-tetrahydropyrido[3,4-d]pyrimidin-4-yl)-4-(1-(2-chlorophenylthio)-4-(dimethylamino)butan-2-ylamino)-3-(trifluoromethylsulfonyl)benzenesulfonamide]
73 nM | CN(C)CC[C@H](CSc1ccccc1Cl)Nc1ccc(S(=O)(=O)Nc2nc(C(F)(F)F)nc3c2CCN(C2CCN(Cc4ccccc4-c4ccc(Cl)cc4)CC2)C3)cc1S(=O)(=O)C(F)(F)F [Example 33, (R)-N-(7-(1-((4′-chlorobiphenyl-2-yl)methyl)piperidin-4-yl)-2-(trifluoromethyl)-5,6,7,8-tetrahydropyrido[3,4-d]pyrimidin-4-yl)-4-(1-(2-chlorophenylthio)-4-(dimethylamino)butan-2-ylamino)-3-(trifluoromethylsulfonyl)benzenesulfonamide]
99 nM | CC(c1ccccc1-c1ccc(Cl)cc1)N1CCC(N2CCc3c(nc(C(F)(F)F)nc3NS(=O)(=O)c3ccc(N[C@H](CCN(C)C)CSc4ccccc4Cl)c(S(=O)(=O)C(F)(F)F)c3)C2)CC1 (stereo partly drawn) [Example 34, N-(7-(1-(1-(4′-chlorobiphenyl-2-yl)ethyl)piperidin-4-yl)-2-(trifluoromethyl)-5,6,7,8-tetrahydropyrido[3,4-d]pyrimidin-4-yl)-4-((R)-1-(2-chlorophenylthio)-4-(dimethylamino)butan-2-ylamino)-3-(trifluoromethylsulfonyl)benzenesulfonamide]
80 nM | CC(c1cc(F)ccc1-c1ccc(Cl)cc1)N1CCC(N2CCc3c(ncnc3NS(=O)(=O)c3ccc(N[C@H](CCN4CCN(C)CC4)CSc4ccccc4)c(S(=O)(=O)C(F)(F)F)c3)C2)CC1 (stereo partly drawn) [Example 35, N-(7-(1-(1-(4′-chloro-4-fluorobiphenyl-2-yl)ethyl)piperidin-4-yl)-5,6,7,8-tetrahydropyrido[3,4-d]pyrimidin-4-yl)-4-((R)-4-(4-methylpiperazin-1-yl)-1-(phenylthio)butan-2-ylamino)-3-(trifluoromethylsulfonyl)benzenesulfonamide]
34 nM | COc1ccc(-c2ccc(Cl)cc2)c(CN2CCC(N3CCc4c(ncnc4NS(=O)(=O)c4ccc(N[C@H](CCN(C)C)CSc5ccccc5)c(S(=O)(=O)C(F)(F)F)c4)C3)CC2)c1 [Example 36, (R)-N-(7-(1-((4′-chloro-4-methoxybiphenyl-2-yl)methyl)piperidin-4-yl)-5,6,7,8-tetrahydropyrido[3,4-d]pyrimidin-4-yl)-4-(4-(dimethylamino)-1-(phenylthio)butan-2-ylamino)-3-(trifluoromethylsulfonyl)benzenesulfonamide]
58 nM | CN(C)CC[C@H](CSc1ccc(F)cc1)Nc1ccc(S(=O)(=O)Nc2ncnc3c2CCN(C2CCN(Cc4ccccc4-c4ccc(Cl)cc4)CC2)C3)cc1S(=O)(=O)C(F)(F)F [Example 37, N-{7-[1-(4′-Chloro-biphenyl-2-ylmethyl)-piperidin-4-yl]-5,6,7,8-tetrahydro-pyrido[3,4-d]pyrimidin-4-yl}-4-[(R)-3-dimethylamino-1-(4-fluoro-phenylsulfanylmethyl)-propylamino]-3-trifluoromethanesulfonyl-benzenesulfonamide]
41 nM | CN(C)CC[C@H](CSc1c(Cl)cccc1Cl)Nc1ccc(S(=O)(=O)Nc2ncnc3c2CCN(C2CCN(Cc4ccccc4-c4ccc(Cl)cc4)CC2)C3)cc1S(=O)(=O)C(F)(F)F [Example 38, (R)-N-(7-(1-((4′-chlorobiphenyl-2-yl)methyl)piperidin-4-yl)-5,6,7,8-tetrahydropyrido[3,4-d]pyrimidin-4-yl)-4-(1-(2,6-dichlorophenylthio)-4-(dimethylamino)butan-2-ylamino)-3-(trifluoromethylsulfonyl)benzenesulfonamide]
41 nM | CN(C)CC[C@H](CSc1ccc(Cl)c(Cl)c1)Nc1ccc(S(=O)(=O)Nc2ncnc3c2CCN(C2CCN(Cc4ccccc4-c4ccc(Cl)cc4)CC2)C3)cc1S(=O)(=O)C(F)(F)F [Example 39, N-{7-[1-(4′-Chloro-biphenyl-2-ylmethyl)-piperidin-4-yl]-5,6,7,8-tetrahydro-pyrido[3,4-d]pyrimidin-4-yl}-4-[(R)-1-(3,4-dichloro-phenylsulfanylmethyl)-3-dimethylamino-propylamino]-3-trifluoromethanesulfonyl-benzenesulfonamide]
32 nM | CN(C)CC[C@H](CSc1ccccc1Cl)Nc1ccc(S(=O)(=O)Nc2ncnc3c2CCN(C2CCN(Cc4ccccc4-c4ccc(Cl)cc4)CC2)C3)cc1S(=O)(=O)C(F)(F)F [Example 40]
259 nM | CN(C)CC[C@H](CSc1cc(Cl)cc(Cl)c1)Nc1ccc(S(=O)(=O)Nc2ncnc3c2CCN(C2CCN(Cc4ccccc4-c4ccc(Cl)cc4)CC2)C3)cc1S(=O)(=O)C(F)(F)F [Example 41, (R)-N-(7-(1-((4′-chlorobiphenyl-2-yl)-methyl)piperidin-4-yl)-5,6,7,8-tetrahydropyrido[3,4-c]pyrimidin-4-yl)-4-(1-(3,5-dichlorophenylthio)-4-(dimethylamino)butan-2-ylamino)-3-(trifluoromethylsulfonyl)benzenesulfonamide]
97 nM | CC(c1ccccc1-c1ccc(Cl)cc1)N1CCC(N2CCc3c(ncnc3NS(=O)(=O)c3ccc(N[C@H](CCN4CCOCC4)CSc4ccccc4)c(S(=O)(=O)C(F)(F)F)c3)C2)CC1 (stereo partly drawn) [Example 42, N-(7-(1-(1-(4′chlorobiphenyl-2-yl)ethyl)piperidin-4-yl)-5,6,7,8-tetrahydropyrido[3,4-d]pyrimidin-4-yl)-4-((R)-4-morpholino-1-(phenylthio)butan-2-ylamino)-3-(trifluoromethylsulfonyl)benzenesulfonamide]
2420 nM | CCC[C@H](CSc1ccccc1)Nc1ccc(S(=O)(=O)Nc2ncnc3c2CCN(C2CCN(Cc4ccccc4-c4ccc(Cl)cc4)CC2)C3)cc1S(=O)(=O)C(F)(F)F [Example 43, (R)-N-(7-(1-((4′-chlorobiphenyl-2-yl)methyl)piperidin-4-yl)-5,6,7,8-tetrahydropyrido[3,4-d]pyrimidin-4-yl)-4-(1-(phenylthio)pentan-2-ylamino)-3-(trifluoromethylsulfonyl)benzenesulfonamide]
235 nM | C[C@H](CSc1ccccc1)Nc1ccc(S(=O)(=O)Nc2ncnc3c2CCN(C2CCN(Cc4ccccc4-c4ccc(Cl)cc4)CC2)C3)cc1S(=O)(=O)C(F)(F)F [Example 44, N-(7-(1((4′-chlorobiphenyl-2-yl)-methyl)piperidin-4-yl)-5,6,7,8-tetrahydropyrido[3,4-d]pyrimidin-4-yl)-4-(1-(phenylthio)propan-2-ylamino)-3-(trifluoromethylsulfonyl)benzenesulfonamide]
365 nM | C[C@H](CSc1ccccc1)Nc1ccc(S(=O)(=O)Nc2ncnc3c2CCN(C2CCN(CC4=C(c5ccc(Cl)cc5)CC(C)(C)CC4)CC2)C3)cc1S(=O)(=O)C(F)(F)F [Example 45, N-(7-(1-((2-(4-chlorophenyl)-4,4-dimethylcyclohex-1-enyl)methyl)piperidin-4-yl)-5,6,7,8-tetrahydropyrido[3,4-d]pyrimidin-4-yl)-4-(1-(phenylthio)propan-2-ylamino)-3-(trifluoromethylsulfonyl)benzenesulfonamide]
1770 nM | CC#CCOc1ccccc1CN1CCC(N2CCc3c(ncnc3NS(=O)(=O)c3ccc(N[C@H](CCN(C)C)CSc4ccccc4)c(S(=O)(=O)C(F)(F)F)c3)C2)CC1 [Example 46, (R)-N-(7-(1-(2-(but-2-ynyloxy)benzyl)piperidin-4-yl)-5,6,7,8-tetrahydropyrido[3,4-d]pyrimidin-4-yl)-4-(4-(dimethylamino)-1-(phenylthio)butan-2-ylamino)-3-(trifluoromethylsulfonyl)benzenesulfonamide]
25 nM | CN(C)CC[C@H](CSc1ccccc1F)Nc1ccc(S(=O)(=O)Nc2ncnc3c2CCN(C2CCN(Cc4ccccc4-c4ccc(Cl)cc4)CC2)C3)cc1S(=O)(=O)C(F)(F)F [Example 47, N-{7-[1-(4′-Chloro-biphenyl-2-ylmethyl)-piperidin-4-yl]-5,6,7,8-tetrahydro-pyrido[3,4-d]pyrimidin-4-yl}-4-[(R)-3-dimethylamino-1-(2-fluoro-phenylsulfanylmethyl)-propylamino]-3-trifluoromethanesulfonyl-benzene sulfonamide]
